Reference: paper PMC8079033, “Design, synthesis, anticancer evaluation, and molecular modelling studies of novel tolmetin derivatives as potential VEGFR-2 inhibitors and apoptosis inducers” (Journal of Enzyme Inhibition and Medicinal Chemistry, 2021)

Assays:
A498 = assay: NCI 60-cell line one-dose antiproliferative screen (SRB); format: cell-based; settings: Homo sapiens, read-out: growth inhibition % (GI%)
Summary of the method: (§1)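 Cells were plated and held 24 h at 37 °C, 5% CO2 before a single 10 µM dose was added, then exposed 48 h. Adherent cells were fixed with TCA (final 10%), suspension cells with TCA (final 16%), stained with sulforhodamine B and read at 515 nm.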

Colo 205 = assay: as above; format: cell-based; settings: Homo sapiens, read-out: growth inhibition % (GI%)
Summary of the method: as §1

DU-145 = assay: as above; format: cell-based; settings: Homo sapiens, read-out: growth inhibition % (GI%)
Summary of the method: as §1

EKVX = assay: as above; format: cell-based; settings: Homo sapiens, read-out: growth inhibition % (GI%)
Summary of the method: as §1

HCC-2998 = assay: as above; format: cell-based; settings: Homo sapiens, read-out: growth inhibition % (GI%)
Summary of the method: as §1

HOP-92 = assay: as above; format: cell-based; settings: Homo sapiens, read-out: growth inhibition % (GI%)
Summary of the method: as §1

HS 578 T = assay: as above; format: cell-based; settings: Homo sapiens, read-out: growth inhibition % (GI%)
Summary of the method: as §1

HT29 = assay: as above; format: cell-based; settings: Homo sapiens, HT-29, read-out: growth inhibition % (GI%)
Summary of the method: as §1

KM12 = assay: as above; format: cell-based; settings: Homo sapiens, read-out: growth inhibition % (GI%)
Summary of the method: as §1

MALME-3M = assay: as above; format: cell-based; settings: Homo sapiens, read-out: growth inhibition % (GI%)
Summary of the method: as §1

NCI-H226 = assay: as above; format: cell-based; settings: Homo sapiens, read-out: growth inhibition % (GI%)
Summary of the method: as §1

NCI-H322M = assay: as above; format: cell-based; settings: Homo sapiens, read-out: growth inhibition % (GI%)
Summary of the method: as §1

NCI-H460 = assay: as above; format: cell-based; settings: Homo sapiens, read-out: growth inhibition % (GI%)
Summary of the method: as §1

OVCAR-3 = assay: as above; format: cell-based; settings: Homo sapiens, read-out: growth inhibition % (GI%)
Summary of the method: as §1

RPMI-8226 = assay: as above; format: cell-based; settings: Homo sapiens, read-out: growth inhibition % (GI%)
Summary of the method: as §1

SF-295 = assay: as above; format: cell-based; settings: Homo sapiens, read-out: growth inhibition % (GI%)
Summary of the method: as §1

SK-MEL-28 = assay: as above; format: cell-based; settings: Homo sapiens, read-out: growth inhibition % (GI%)
Summary of the method: as §1

SK-MEL-2 = assay: as above; format: cell-based; settings: Homo sapiens, read-out: growth inhibition % (GI%)
Summary of the method: as §1

SK-OV-3 = assay: as above; format: cell-based; settings: Homo sapiens, read-out: growth inhibition % (GI%)
Summary of the method: as §1

SR = assay: as above; format: cell-based; settings: Homo sapiens, read-out: growth inhibition % (GI%)
Summary of the method: as §1

SW-620 = assay: as above; format: cell-based; settings: Homo sapiens, read-out: growth inhibition % (GI%)
Summary of the method: as §1

TK-10 = assay: as above; format: cell-based; settings: Homo sapiens, read-out: growth inhibition % (GI%)
Summary of the method: as §1

U251 = assay: as above; format: cell-based; settings: Homo sapiens, U-251, read-out: growth inhibition % (GI%)
Summary of the method: as §1

UACC-257 = assay: as above; format: cell-based; settings: Homo sapiens, read-out: growth inhibition % (GI%)
Summary of the method: as §1

UACC-62 = assay: as above; format: cell-based; settings: Homo sapiens, read-out: growth inhibition % (GI%)
Summary of the method: as §1

UO-31 = assay: as above; format: cell-based; settings: Homo sapiens, read-out: growth inhibition % (GI%)
Summary of the method: as §1

[1] = system: panel of 60 tumour cell lines; assay: NCI 60-cell line one-dose screen, summary over the panel; format: cell-based, human; settings: Homo sapiens, 60 cell, listed leukaemia, lung, colon, CNS, melanoma, ovarian, renal, breast lines, read-out: GI% range, potent growth inhibitory effects on the cell lines listed in the text
Procedure: Anticancer activity screening of the newly synthesised compounds was measured in vitro utilising 60 different human tumour cell lines provided by US National Cancer Institute according to previously reported standard procedure[41–43] as follows: Cells are inoculated into 96-well microtiter plates in 100 ml. After cell inoculation, the microtiter plates are incubated at 37 °C, 5% CO2, 95% air, and 100% relative humidity for 24 h prior to addition of experimental compounds. After 24 h, two plates of each cell line are fixed in situ with TCA, to represent a measurement of the cell population for each cell line at the time of compound addition (Tz). Experimental compounds are solubilised in dimethyl sulfoxide at 400-fold the desired final maximum test concentration and stored frozen prior to use. At the time of compound addition, an aliquot of frozen concentrate is thawed and diluted to twice the desired final maximum test concentration with a complete medium containing […] gentamicin. Aliquots of […] of the compounds dilutions are added to the appropriate microtiter wells already containing 100 ml of medium, resulting in the required final compound concentration. Following compound addition, the plates are incubated for an additional 48 h at 37 °C, 5% CO2, 95% air, and 100% relative humidity. […] The bound stain is subsequently solubilised with a 10 mM trizma base, and the absorbance is read on an automated plate reader at a wavelength of 515 nm. […] Using the absorbance measurements [time zero, (Tz), control growth, (C), and test growth in the presence of compound (Ti)], the percentage growth is calculated for each compound. […]
Fifteen newly synthesised compounds were tested for their in vitro antiproliferative activity by the National Cancer Institute (NCI), Maryland, USA[50], under the Developmental Therapeutic Program (DTP)[41]^,[43]^,[51]^,[52]. The tested compounds were evaluated at a concentration of 10 µM on a panel of 60 tumour cell lines representing leukaemia and non-small cell lung, colon, CNS, melanoma, ovarian, renal, prostate, and breast cancers. […]

[2] = system: leukaemia HL-60 (TB) cell line; assay: MTT cytotoxicity assay; format: cell-based; settings: Homo sapiens, mean ± SD of three experiments
colon (HCT-15) cell line = assay: MTT cytotoxicity assay; format: cell-based; settings: Homo sapiens, mean ± SD of three experiments
renal (UO-31) cell line = assay: MTT cytotoxicity assay; format: cell-based; settings: Homo sapiens, mean ± SD of three experiments

| Compound | inhibition at 10 µM (A498) | inhibition at 10 µM (DU-145) | inhibition at 10 µM (EKVX) | inhibition at 10 µM (HOP-92) | inhibition at 10 µM (HS 578 T) | inhibition at 10 µM (KM12) | inhibition at 10 µM (MALME-3M) | inhibition at 10 µM (NCI-H226) | inhibition at 10 µM (NCI-H322M) | inhibition at 10 µM (NCI-H460) | inhibition at 10 µM (RPMI-8226) | inhibition at 10 µM (SF-295) | inhibition at 10 µM (SK-MEL-2) | inhibition at 10 µM (SK-OV-3) | inhibition at 10 µM (SR) | inhibition at 10 µM (SW-620) | inhibition at 10 µM (U251) | inhibition at 10 µM (UACC-62) | inhibition at 10 µM (UO-31) | melting point | further results |
| --- | --- | --- | --- | --- | --- | --- | --- | --- | --- | --- | --- | --- | --- | --- | --- | --- | --- | --- | --- | --- | --- |
| Cc1ccc(C(=O)c2ccc(CC(=O)NN=Cc3ccc(O)cc3O)n2C)cc1 [Compound 5c, N′-(2,4-Dihydroxybenzylidene)-2–(1-methyl-5–(4-methylbenzoyl)-1H-pyrrol-2-yl) acetohydrazide] | 12.6% | 48.7% | 65.8% | 16.9% | 25.1% | 63.9% | 51.4% | 34.3% | 62% | 78.9% | 51.6% | 52.8% | 40.6% | 54.9% | 82.7% | 57.8% | 62.4% | 70.2% | 80.2% | – | inhibition at 10 µM (Colo 205): 58.2%; inhibition at 10 µM (HCC-2998): 40.4%; inhibition at 10 µM (HT29): 36%; inhibition at 10 µM (OVCAR-3): 62.8%; inhibition at 10 µM (SK-MEL-28): 53.6%; inhibition at 10 µM (TK-10): 47.1%; inhibition at 10 µM (UACC-257): 41.7%; inhibition at 10 µM [1]: 60.7 to 95%; IC50 [2]: 31.7 ± 1.7 µM; IC50 (colon (HCT-15) cell line): 19 ± 1.03 µM; IC50 (renal (UO-31) cell line): 17.4 ± 0.93 µM |
| Cc1ccc(C(=O)c2ccc(CC(=O)NN=Cc3c[nH]c4ccccc34)n2C)cc1 [Compound 5f, N′-((1H-Indol-3-yl)methylene)-2–(1-methyl-5–(4-methylbenzoyl)-1H-pyrrol-2-yl) acetohydrazide] | 15.6% | – | 17.7% | < 10% | < 10% | – | 19.3% | < 10% | < 10% | < 10% | 15.9% | < 10% | – | – | 11.2% | < 10% | 10.4% | 12.2% | 32.8% | 168 to 170 °C | inhibition at 10 µM (OVCAR-3): < 10% |
| Cc1ccc(C(=O)c2ccc(CC(=O)NN3C(=O)C=CC3=O)n2C)cc1 [Compound 7b, N-(2,5-Dioxo-2,5-dihydro-1H-pyrrol-1-yl)-2–(1-methyl-5–(4-methylbenzoyl)-1H-pyrrol-2-yl)acetamide] | 10.7% | < 10% | 25.7% | – | < 10% | < 10% | – | 22.1% | < 10% | – | < 10% | < 10% | < 10% | < 10% | – | < 10% | < 10% | < 10% | 35.3% | 193 to 195 °C | – |
| Cc1ccc(C(=O)c2ccc(CC(=O)NN3C(=O)CCC3=O)n2C)cc1 [Compound 7a, N-(2,5-Dioxopyrrolidin-1-yl)-2–(1-methyl-5–(4-methylbenzoyl)-1H-pyrrol-2-yl) acetamide] | 14.5% | – | 23.9% | 19.2% | – | – | – | 22.6% | < 10% | < 10% | 20.2% | < 10% | < 10% | 14% | – | < 10% | < 10% | 12.4% | 41.2% | > 300 °C | inhibition at 10 µM (HT29): < 10% |
| Cc1ccc(C(=O)c2ccc(CC(=O)NNC(=O)Nc3ccc(Cl)c(C(F)(F)F)c3)n2C)cc1 [Compound 8c, N-(4-Chloro-3-(trifluoromethyl)phenyl)-2–(2-(1-methyl-5–(4-methylbenzoyl)-1H-pyrrol-2-yl)acetyl)hydrazinecarboxamide] | 18.3% | < 10% | < 10% | 13.5% | 11.9% | < 10% | < 10% | < 10% | 14.4% | 16.8% | 11.3% | < 10% | – | – | < 10% | 10.6% | < 10% | 19.7% | 38.4% | 171 to 173 °C | inhibition at 10 µM (Colo 205): < 10%; inhibition at 10 µM (HT29): < 10%; inhibition at 10 µM (UACC-257): 22.9% |
| Cc1ccc(C(=O)c2ccc(CC(=O)NN=Cc3ccccc3O)n2C)cc1 [Compound 5a, N′-(2-Hydroxybenzylidene)-2–(1-methyl-5–(4-methylbenzoyl)-1H-pyrrol-2-yl)aceto hydrazide] | 18% | 10.4% | 17.3% | < 10% | – | 19.6% | < 10% | < 10% | 21.1% | 23.4% | 18.6% | < 10% | 10.4% | < 10% | 43.8% | 10.4% | 23.8% | 12.8% | 59.3% | 222 to 224 °C | inhibition at 10 µM (HCC-2998): < 10%; inhibition at 10 µM (OVCAR-3): 19.7%; inhibition at 10 µM (SK-MEL-28): 15.7%; inhibition at 10 µM (TK-10): 14.9%; inhibition at 10 µM (UACC-257): < 10% |
